Measured values reported in ChEMBL document CHEMBL5223170, “Potent and Selective Biaryl Amide Inhibitors of Hematopoietic Progenitor Kinase 1 (HPK1)” (ACS Med Chem Lett, 2023).
Converted amounts (≈) assume the structure as drawn.

Key:
[1] = physchem; details: SGF buffer
[2] = in vitro; details: human, liver microsomes

solubility [1]: 350 µg/mL (≈ 687 µM) | CLint scaled at 0.5 h [2]: > 18.3 mL/min/kg
SMILES: COc1cccc(F)c1-c1nccc(C(=O)Nc2cc(F)c3c(cnn3C)c2N2C[C@@H](N)C[C@H]2CO)n1
